From patent publication US12583849B2, “KCNT1 inhibitors and methods of use” (Praxis Precision Medicines, Inc., priority 2020, dated 2026)
pIC50: −log10 of the molar value.

molecular target: T1, KCNT1 (KNa1.1, Slack) (Homo sapiens, UniProt Q5JUK3); experiment: KCNT1-WT-Basal Patch Clamp Assay; format: cell-based; conditions: tetracycline inducible cell line (HEK-TREX); SyncroPatch 384PE automated patch clamp, perforated patch mode, room temperature, step from -80 mV to 0 mV
T1 construct: expressed in transfected cells; host or cells: HEK-TREX (tetracycline-inducible cell line)
T1 sequence (Q5JUK3 1-1230): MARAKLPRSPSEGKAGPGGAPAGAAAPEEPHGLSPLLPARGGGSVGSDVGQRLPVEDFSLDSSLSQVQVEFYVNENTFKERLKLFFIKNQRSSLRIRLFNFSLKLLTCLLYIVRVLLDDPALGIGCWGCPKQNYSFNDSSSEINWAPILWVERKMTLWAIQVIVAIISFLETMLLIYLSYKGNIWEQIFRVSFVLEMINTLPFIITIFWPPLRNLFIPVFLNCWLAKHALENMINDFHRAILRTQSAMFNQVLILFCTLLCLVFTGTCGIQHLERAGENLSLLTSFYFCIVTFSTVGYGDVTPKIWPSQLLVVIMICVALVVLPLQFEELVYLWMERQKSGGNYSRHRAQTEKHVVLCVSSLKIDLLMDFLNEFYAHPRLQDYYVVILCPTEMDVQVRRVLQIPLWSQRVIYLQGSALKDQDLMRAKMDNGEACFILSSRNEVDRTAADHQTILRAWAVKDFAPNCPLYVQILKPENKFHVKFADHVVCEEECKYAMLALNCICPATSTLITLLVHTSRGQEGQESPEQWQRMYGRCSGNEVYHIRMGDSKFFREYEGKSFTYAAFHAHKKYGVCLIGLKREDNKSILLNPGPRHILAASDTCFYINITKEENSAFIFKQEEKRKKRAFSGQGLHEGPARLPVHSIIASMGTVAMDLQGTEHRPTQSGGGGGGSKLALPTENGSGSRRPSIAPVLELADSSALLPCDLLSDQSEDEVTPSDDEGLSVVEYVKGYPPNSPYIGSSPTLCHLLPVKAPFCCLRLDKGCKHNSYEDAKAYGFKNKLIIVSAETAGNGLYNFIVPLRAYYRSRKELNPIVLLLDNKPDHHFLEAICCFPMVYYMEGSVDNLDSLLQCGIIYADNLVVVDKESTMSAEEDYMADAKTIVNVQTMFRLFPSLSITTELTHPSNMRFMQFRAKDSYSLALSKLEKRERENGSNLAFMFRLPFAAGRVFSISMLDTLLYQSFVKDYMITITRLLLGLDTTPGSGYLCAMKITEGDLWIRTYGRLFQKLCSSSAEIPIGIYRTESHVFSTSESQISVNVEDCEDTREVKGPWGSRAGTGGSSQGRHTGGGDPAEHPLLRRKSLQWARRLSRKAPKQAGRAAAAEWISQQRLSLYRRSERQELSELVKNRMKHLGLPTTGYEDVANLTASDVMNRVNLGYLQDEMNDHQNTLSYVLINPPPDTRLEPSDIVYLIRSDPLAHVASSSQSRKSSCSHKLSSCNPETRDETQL
Protocol: KCNT1-WT-Basal—Patch Clamp Assay
Inhibition of KCNT1 (KNa1.1, Slack) was evaluated using a tetracycline inducible cell line (HEK-TREX). Currents were recorded using the SyncroPatch 384PE automated, patch clamp system. Pulse generation and data collection were performed with PatchController384 V1.3.0 and DataController384 V1.2.1 (Nanion Technologies). The access resistance and apparent membrane capacitance were estimated using built-in protocols. Current were recorded in perforated patch mode (10 μM escin) from a population of cells. The cells were lifted, triturated, and resuspended at 800,000 cells/ml. The cells were allowed to recover in the cell hotel prior to experimentation. Currents were recorded at room temperature. The external solution contained the following (in mM): NaCl 105, NMDG 40, KCl 4, MgCl2 1, CaCl2 5 and HEPES 10 (pH=7.4, Osmolarity ˜300 mOsm). The extracellular solution was used as the wash, reference and compound delivery solution. The internal solution contained the following (in mM): NaCl 70, KF 70, KCl 10, EGTA 5, HEPES 5 and Escin 0.01 (pH=7.2, Osmolarity ˜295 mOsm). Escin is made at a 5 mM stock in water, aliquoted, and stored at −20° C. The compound plate was created at 2× concentrated in the extracellular solution. The compound was diluted to 1:2 when added to the recording well. The amount of DMSO in the extracellular solution was held constant at the level used for the highest tested concentration. A holding potential of −80 mV with a 100 ms step to 0 mV was used. Mean current was measured during the step to 0 mV. […] The average mean current from 3 sweeps was calculated and the % inhibition of each compound was calculated. The % Inhibition as a function of the compound concentration was fit with a Hill equation to derive IC50, slope, min and max parameters. If KCNT1 inhibition was less than 50% at the highest tested concentration or if an IC50 could not be calculated, then a percent inhibition was reported in place of the IC50.
In this table, “A” indicates IC50 of less than or equal to 1 μM; “B” indicates inhibition of between 1 μM to 20 μM; and “C” indicates inhibition of greater than or equal to 20 μM.

| pIC50 | SMILES |
| --- | --- |
| ≤ 4.70 | C[C@H](NC(=O)CN(C)C)c1nc(-c2ccnc(C(F)(F)F)c2)no1 [III-1, (S)-2-(dimethylamino)-N-(1-(3-(2-(trifluoromethyl)pyridin-4-yl)-1,2,4-oxadiazol-5-yl)ethyl)acetamide] |
| ≤ 4.70 | C[C@H](NC(=O)C1(C#N)CC1)c1nc(-c2ccnc(C(F)(F)F)c2)no1 [Compound I-32, (S)-1-cyano-N-(1-(3-(2-(trifluoromethyl)pyridin-4-yl)-1,2,4-oxadiazol-5-yl)ethyl)cyclopropane-1-carboxamide] |
| 4.70 to 6.00 | Cc1nc(C)c(C(=O)N[C@H](C)c2nc(-c3cccc(F)c3)no2)s1 [Compound I-37, (R)—N-(1-(3-(3-fluorophenyl)-1,2,4-oxadiazol-5-yl)ethyl)-2,4-dimethylthiazole-5-carboxamide] |
| ≥ 6.00 | C[C@H](NC(=O)c1cccc(S(C)(=O)=O)c1)c1nc(-c2ccnc(C3CC3)c2)no1 [Compound I-92, (S)—N-(1-(3-(2-cyclopropylpyridin-4-yl)-1,2,4-oxadiazol-5-yl)ethyl)-3-(methylsulfonyl)benzamide] |
| ≥ 6.00 | C[C@H](NC(=O)N1CCc2ccccc2C1)c1nc(-c2ccnc(C(F)(F)F)c2)no1 [II-11] |
| ≥ 6.00 | Cc1cc(C(=O)N[C@@H](C)c2nc(-c3ccnc(C4CC4)c3)no2)ccn1 [Compound I-101, (S)—N-(1-(3-(2-cyclopropylpyridin-4-yl)-1,2,4-oxadiazol-5-yl)ethyl)-2-methyl isonicotinamide] |
| ≤ 4.70 | C[C@H](NC(=O)C1CCC(O)CC1)c1nc(-c2ccnc(C(F)(F)F)c2)no1 (single isomer, unassigned) [Compound I-77] |
| 4.70 to 6.00 | C[C@H](NC(=O)c1cccc(C(N)=O)c1)c1nc(-c2ccnc(C3CC3)c2)no1 [Compound I-91, (S)—N-(1-(3-(2-cyclopropylpyridin-4-yl)-1,2,4-oxadiazol-5-yl)ethyl) isophthalamide] |
| ≥ 6.00 | C[C@H](NC(=O)c1ccc(Br)s1)c1nc(-c2ccnc(C(F)(F)F)c2)no1 [Compound I-18, (S)-5-bromo-N-(1-(3-(2-(trifluoromethyl)pyridin-4-yl)-1,2,4-oxadiazol-5-yl)ethyl)thiophene-2-carboxamide] |
| ≥ 6.00 | C[C@H](NC(=O)c1cc2ccc(C(F)(F)F)cc2s1)c1nc(-c2ccnc(C(F)(F)F)c2)no1 [Compound I-25, (S)-6-(trifluoromethyl)-N-(1-(3-(2-(trifluoromethyl)pyridin-4-yl)-1,2,4-oxadiazol-5-yl)ethyl)benzo[b]thiophene-2-carboxamide] |
| ≤ 4.70 | CC(NC(=O)c1cn2ccccc2n1)c1nc(-c2cccc(F)c2)no1 (stereo not drawn) [Compound I-50, N-[1-[3-(3-fluorophenyl)-1,2,4-oxadiazol-5-yl]ethyl]imidazo[1,2-a]pyridine-2-carboxamide] |
| ≥ 6.00 | C[C@H](NC(=O)c1ccc(S(=O)(=O)C2CC2)s1)c1nc(-c2ccnc(C3CC3)c2)no1 [Compound I-97, (S)—N-(1-(3-(2-cyclopropylpyridin-4-yl)-1,2,4-oxadiazol-5-yl)ethyl)-5-(cyclopropylsulfonyl)thiophene-2-carboxamide] |
| ≥ 6.00 | C[C@H](NC(=O)C(C)(C)C)c1nc(-c2ccnc(C3CC3)c2)no1 [III-5] |
| ≤ 4.70 | C[C@H](NC(=O)[C@H]1CCCC(=O)N1)c1nc(-c2ccnc(C(F)(F)F)c2)no1 [Compound I-34, (R)-6-oxo-N—((S)-1-(3-(2-(trifluoromethyl)pyridin-4-yl)-1,2,4-oxadiazol-5-yl)ethyl)piperidine-2-carboxamide] |
| 4.70 to 6.00 | C[C@H](NC(=O)c1nccn1C1CCC1)c1nc(-c2ccnc(C3CC3)c2)no1 [Compound I-104, (S)-1-cyclobutyl-N-(1-(3-(2-cyclopropylpyridin-4-yl)-1,2,4-oxadiazol-5-yl)ethyl)-1H-imidazole-2-carboxamide] |
| ≥ 6.00 | COc1ccc(C(=O)N[C@@H](C)c2nc(-c3ccnc(C4CC4)c3)no2)cc1 [Compound I-61, (S)—N-(1-(3-(2-cyclopropylpyridin-4-yl)-1,2,4-oxadiazol-5-yl)ethyl)-4-methoxybenzamide] |
| ≥ 6.00 | C[C@H](NC(=O)C1CCC(C)(C)CC1)c1nc(-c2ccnc(C(F)(F)F)c2)no1 [Compound I-67, (S)-4,4-dimethyl-N-(1-(3-(2-(trifluoromethyl)pyridin-4-yl)-1,2,4-oxadiazol-5-yl)ethyl)cyclohexane-1-carboxamide] |
| ≥ 6.00 | C[C@H](NC(=O)[C@H]1CC[C@H](C)CC1)c1nc(-c2ccnc(C(F)(F)F)c2)no1 [Compound I-26, trans-4-methyl-N—((S)-1-(3-(2-(trifluoromethyl)pyridin-4-yl)-1,2,4-oxadiazol-5-yl)ethyl)cyclohexane-1-carboxamide] |
| ≥ 6.00 | C[C@H](NC(=O)CN(C)c1ccccc1)c1nc(-c2ccnc(C(F)(F)F)c2)no1 [III-4, (S)-2-(methyl(phenyl)amino)-N-(1-(3-(2-(trifluoromethyl)pyridin-4-yl)-1,2,4-oxadiazol-5-yl)ethyl)acetamide] |
| ≤ 4.70 | C[C@H](NC(=O)c1nc(-c2ccccc2)nn1C)c1nc(-c2cccc(F)c2)no1 [Compound I-38, (S)—N-(1-(3-(3-fluorophenyl)-1,2,4-oxadiazol-5-yl)ethyl)-1-methyl-3-phenyl-1H-1,2,4-triazole-5-carboxamide] |
| ≥ 6.00 | C[C@H](NC(=O)N1CCCc2ccccc21)c1nc(-c2ccnc(C3CC3)c2)no1 [II-8] |
| ≥ 6.00 | C[C@H](NC(=O)c1ccnc(C(F)(F)F)c1)c1nc(-c2ccnc(C3CC3)c2)no1 [Compound I-96, (S)—N-(1-(3-(2-cyclopropylpyridin-4-yl)-1,2,4-oxadiazol-5-yl)ethyl)-2-(trifluoromethyl)isonicotinamide] |
| ≥ 6.00 | CC(C)Oc1cc(-c2noc([C@H](C)NC(=O)N3CCOc4ccccc43)n2)ccn1 [II-4] |
| ≥ 6.00 | C[C@H](NC(=O)Cc1ccccc1)c1nc(-c2ccnc(C3CC3)c2)no1 [Compound I-42, (S)—N-(1-(3-(2-cyclopropylpyridin-4-yl)-1,2,4-oxadiazol-5-yl)ethyl)-2-phenylacetamide] |
| ≥ 6.00 | C[C@H](NC(=O)C1CC2CCC1CC2)c1nc(-c2ccnc(C(F)(F)F)c2)no1 (stereo partly drawn) [Compound I-60, N—((S)-1-(3-(2-(trifluoromethyl)pyridin-4-yl)-1,2,4-oxadiazol-5-yl)ethyl)bicyclo[2.2.2]octane-2-carboxamide] |
| ≥ 6.00 | COc1cccc(C(=O)N[C@@H](C)c2nc(-c3ccnc(C4CC4)c3)no2)c1 [Compound I-79] |
| 4.70 to 6.00 | C[C@H](NC(=O)C12CC(C)(C1)C2)c1nc(-c2ccnc(C(F)(F)F)c2)no1 [Compound I-72, 3-methyl-N-[(1S)-1-[3-[2-(trifluoromethyl)-4-pyridyl]-1,2,4-oxadiazol-5-yl]ethyl]bicyclo[1.1.1]pentane-1-carboxamide] |
